According to publication PMC7853623, “Dose- and time-dependent tolerability and efficacy of organo-osmium complex FY26 and its tissue pharmacokinetics in hepatocarcinoma-bearing mice” (Metallomics: Integrated Biometal Science, 2020):

Experiments:
[1] = system: A2780 ovarian cancer cells; experiment: In vitro growth inhibition assay (SRB), A2780; type: cell-based; conditions: A2780, 24 h exposure, 72 h recovery
Method: Dulbecco's modified Eagle's medium (DMEM) cell culture media, penicillin/streptomycin, foetal bovine serum, L-glutamine, phosphate-buffered saline (PBS) solution, and trypsin/EDTA were all purchased from Thermo Fisher (Loughborough, UK). DMEM was supplemented with 10% foetal bovine serum, 1% penicillin/streptomycin, and 2 mM L-glutamine. Cancer cell lines (A2780 and A549) were purchased from the European Collection of Cell Cultures (Salisbury, UK). Cell cultures were grown in T-75 or T-175 culture flasks as adherent monolayers. The cells were passaged two to three times per week whenever confluence reached 80–90%, using 0.25% trypsin/EDTA. Cell cultures were stored in an incubator at 37°C with a 5% CO2 humidified atmosphere.
Five thousand A2780 or A549 cells were seeded per well in 96-well plates. The cells were pre-incubated in drug-free media at 37°C for 48 h before adding a range of concentrations (0.01–100 µM) of the complexes to be tested. Typically, the complex was dissolved in dimethyl sulfoxide (DMSO) at 2 mM concentration, and then diluted with cell culture medium to give a 100 µM stock solution with 5% (v/v) DMSO. […] Absorbance measurements of the solubilized dye (Thermo Scientific Multiskan FC with SkanIt software 4.1 for Windows using a 470 nm filter) allowed the determination of viable treated cells compared to untreated controls. […]

[2] = Comparative maximum aqueous solubility study (ICP-OES); type: physicochemical; conditions: doubly deionized water, 24 h shaking, ambient 18–20°C, mean ± SD of N = 3
Method: One to five milligrams of FY26⋅PF6 or FY26⋅I, and 180 mg of FY26⋅Cl were dispensed into Falcon tubes in triplicates, then 1 ml of doubly deionized water (DDIW) was added. The Falcon tubes were placed on a Vibrax VXB basic shaker (Sigma-Aldrich, Dorset, UK) for 24 h at a speed of […] (ambient temperature 18–20°C), and were checked at intervals (further solids were added if total saturation appeared to occur). The samples were filtered through syringe filters (PTFE, 0.45 µm, 4 mm) to remove any undissolved solids. The concentrations of Os in the solutions were measured using inductively coupled plasma-optical emission spectroscopy (ICP-OES) (Agilent, Stockport, UK).
Analyses of FY26 solutions were carried out on a Perkin-Elmer (optical emission spectrometer) Optima 5300 DV instrument. All samples and standards were prepared fresh on the day in DDIW with distilled HNO3 (3.2%), thiourea (5 mM), and ascorbic acid (0.1 g/l). The osmium standard was diluted to the following concentrations for the calibration curve: 0, 25, 50, 100, 200, 400, 600, 800, and 1000 ppb. The samples were diluted by serial dilutions of typically 1 in 10 until their concentrations fitted within the calibration range and % total dissolved solids were below 0.2%. Samples were prepared in triplicates and the Os optical emissions at 228.226 and 225.585 nm were detected and integrated.

A2780 cells = experiment: Apoptosis and ROS induction on exposure in A2780 cells; type: cell-based; conditions: data not shown

SMILES: CN(C)c1ccc(N=Nc2ccccn2)cc1.Cc1ccc(C(C)C)cc1.[Cl-].[I-].[Os+2] [FY26⋅Cl]
- difference in anticancer (antiproliferative) activity between X = Cl and X = PF6 [1]: lack of any statistically significant difference
- maximum aqueous solubility [2]: 215 (±10) mM
- ROS induction (A2780 cells): did induce an increase in ROS
- induction of apoptosis (A2780 cells): did not induce apoptosis
